The text below walks through data of ChEMBL document CHEMBL4385656, “Ciprofloxacin-1,2,3-triazole-isatin hybrids tethered via amide: Design, synthesis, and in vitro anti-mycobacterial activity evaluation” (Bioorg Med Chem Lett, 2019).

Structures are written as SMILES. Converted amounts (≈) assume the structure as drawn.

A short description of data set [1]: Selectivity index, ratio of CC50 for cytotoxicity in African green monkey Vero cells to MIC for anti-mycobacterial activity against Mycobacterium tuberculosis H37Rv. The format is toxicity, cell-based. Conditions: read-out: Selectivity Index.
A short description of data set [2]: Cytotoxicity in African green monkey Vero cells. The format is cell-based. The conditions noted are these: chlorocebus sabaeus.
The test system of data set [3] is Mycobacterium tuberculosis. The data set is described as follows: Anti-mycobacterial activity against Mycobacterium tuberculosis H37Rv. The format is functional.
Data set [4] has as its system Mycobacterium tuberculosis. The data set is described as follows: Potency index, ratio of MIC for ciprofloxacin to MIC for test compound for anti-mycobacterial activity against Mycobacterium tuberculosis H37Rv. It counts as functional.

In general, CC50 refers to the concentration at which the toxic effect on the cells reaches its halfway point. One may read the MIC as the smallest concentration in the dilution series that meets the test's criterion for growth inhibition. For `CO/N=C1/C(=O)N(Cc2cn(CC(=O)N3CCN(c4cc5c(cc4F)c(=O)c(C(=O)O)cn5C4CC4)CC3)nn2)c2ccc(C)cc21`, the selectivity ratio in data set [1] worked out at 0.25. In data set [2], this molecule showed a CC50 of 8 mg/L (≈ 12.4 µM). Also, in data set [3], it took 32 mg/L (≈ 49.8 µM) to inhibit growth (MIC).

Consider `O=C1C(=O)N(Cc2cn(CC(=O)N3CCN(c4cc5c(cc4F)c(=O)c(C(=O)O)cn5C4CC4)CC3)nn2)c2ccccc21`, for which, in data set [4], the Ratio is on record as 2. Also, the selectivity ratio in data set [1] came to 32. For the same molecule, in data set [2], the CC50 came out at 16 mg/L (≈ 26.7 µM). In data set [3], this molecule yielded an MIC of 0.5 mg/L (≈ 0.834 µM).

Take `Cc1ccc2c(c1)C(=O)C(=O)N2Cc1cn(CC(=O)N2CCN(c3cc4c(cc3F)c(=O)c(C(=O)O)cn4C3CC3)CC2)nn1`: the selectivity ratio in data set [1] is 16. Further, half-maximal cytotoxicity in data set [2] (CC50) was put at 16 mg/L (≈ 26.1 µM). This molecule returned an MIC in data set [3] of 1 mg/L (≈ 1.63 µM).

With `CO/N=C1/C(=O)N(Cc2cn(CC(=O)N3CCN(c4cc5c(cc4F)c(=O)c(C(=O)O)cn5C4CC4)CC3)nn2)c2ccccc21`, in data set [1], the selectivity ratio is 16. Half-maximal cytotoxicity in data set [2] (CC50) was put at 128 mg/L (≈ 204 µM). In data set [3], this molecule registered an MIC of 8 mg/L (≈ 12.7 µM).

As for `CO/N=C1/C(=O)N(Cc2cn(CC(=O)N3CCN(c4cc5c(cc4F)c(=O)c(C(=O)O)cn5C4CC4)CC3)nn2)c2c(F)cccc21`, the selectivity ratio in data set [1] was 1. The molecule further gave a CC50 in data set [2] of 32 mg/L (≈ 49.5 µM). In addition, in data set [3], the MIC worked out at 32 mg/L (≈ 49.5 µM).

`O=C(O)c1cn(C2CC2)c2cc(N3CCNCC3)c(F)cc2c1=O` [CIPROFLOXACIN]: in data set [1], the selectivity ratio stood at 128. Moreover, the minimum inhibitory concentration (MIC) in data set [3] was 1 mg/L (≈ 3.02 µM).

As for `O=C1C(=O)N(Cc2cn(CC(=O)N3CCN(c4cc5c(cc4F)c(=O)c(C(=O)O)cn5C4CC4)CC3)nn2)c2ccc(F)cc21`, in data set [1], the selectivity ratio was determined as 32. The same molecule came in with a CC50 in data set [2] of 32 mg/L (≈ 51.8 µM). In addition, in data set [3], the lowest concentration to inhibit growth (MIC) was 1 mg/L (≈ 1.62 µM).

With `CO[C@H]1/C=C/O[C@@]2(C)Oc3c(C)c(O)c4c(O)c(c(/C=N/N5CCN(C)CC5)c(O)c4c3C2=O)NC(=O)/C(C)=C\C=C\[C@H](C)[C@H](O)[C@@H](C)[C@@H](O)[C@@H](C)[C@H](OC(C)=O)[C@@H]1C` [RIFAMPIN], in data set [1], the selectivity ratio came out at 512. For the same molecule, the CC50 in data set [2] is 128 mg/L (≈ 156 µM). Further, the MIC in data set [3] came to 0.25 mg/L (≈ 0.304 µM).

With `O=C1C(=O)N(Cc2cn(CC(=O)N3CCN(c4cc5c(cc4F)c(=O)c(C(=O)O)cn5C4CC4)CC3)nn2)c2c(F)cccc21`, the selectivity ratio in data set [1] came out at 2. The same molecule showed a CC50 in data set [2] of 8 mg/L (≈ 13 µM). For the same molecule, in data set [3], the MIC amounted to 4 mg/L (≈ 6.48 µM).

`NNC(=O)c1ccncc1` [ISONIAZID]: in data set [1], the selectivity ratio was 512. The molecule further displayed a CC50 in data set [2] of 64 mg/L (≈ 467 µM). In addition, in data set [3], it took 0.12 mg/L (≈ 0.875 µM) to inhibit growth (MIC).

For the molecule `CCO/N=C1/C(=O)N(Cc2cn(CC(=O)N3CCN(c4cc5c(cc4F)c(=O)c(C(=O)O)cn5C4CC4)CC3)nn2)c2ccccc21`, in data set [1], the selectivity ratio was found to be 2. The molecule also registered a CC50 in data set [2] of 64 mg/L (≈ 99.6 µM). This molecule came in with an MIC in data set [3] of 32 mg/L (≈ 49.8 µM).

For the molecule `CCO/N=C1/C(=O)N(Cc2cn(CC(=O)N3CCN(c4cc5c(cc4F)c(=O)c(C(=O)O)cn5C4CC4)CC3)nn2)c2ccc(F)cc21`, in data set [1], the selectivity ratio was 0.5. In data set [2], this molecule registered a CC50 of 8 mg/L (≈ 12.1 µM). The molecule also displayed an MIC in data set [3] of 16 mg/L (≈ 24.2 µM).

For the molecule `CO/N=C1/C(=O)N(Cc2cn(CC(=O)N3CCN(c4cc5c(cc4F)c(=O)c(C(=O)O)cn5C4CC4)CC3)nn2)c2ccc(F)cc21`, the selectivity ratio in data set [1] worked out at 8. The same molecule yielded a CC50 in data set [2] of 64 mg/L (≈ 99 µM). Moreover, in data set [3], the MIC turned out to be 8 mg/L (≈ 12.4 µM).

For `CCO/N=C1/C(=O)N(Cc2cn(CC(=O)N3CCN(c4cc5c(cc4F)c(=O)c(C(=O)O)cn5C4CC4)CC3)nn2)c2ccc(C)cc21`, in data set [1], the selectivity ratio worked out at 1. In data set [2], this molecule yielded a CC50 of 32 mg/L (≈ 48.7 µM). The lowest concentration to inhibit growth in data set [3] (MIC) was 32 mg/L (≈ 48.7 µM).

With `CCO/N=C1/C(=O)N(Cc2cn(CC(=O)N3CCN(c4cc5c(cc4F)c(=O)c(C(=O)O)cn5C4CC4)CC3)nn2)c2c(F)cccc21`, the selectivity ratio in data set [1] is 0.5. Further, it took 16 mg/L (≈ 24.2 µM) to reach half-maximal cytotoxicity in data set [2] (CC50). This molecule also gave an MIC in data set [3] of 32 mg/L (≈ 48.4 µM).
